Test [1] relates to EOL1 human acute myeloid (eosinophilic) leukemia xenograft model. The experiment in a line: EOL1 xenograft, CD74-ADCs Fc silent with different linker payloads (Example 15). Type of test: in vivo, mice. Conditions: 2.5 mg/kg i.v. once + Venetoclax 50 mg/kg p.o. qd. Here is the method:
To optimize the linker payload, efficacy of 6 CD74-ADCs with different linker payloads (L5-P1, L30-P1, L31-P1, L32-P1, L33-P1 and L34-P1) was evaluated in the EOL1 model in vivo.
EOL1 luciferase transfected cells were cultured at 37° C. in an atmosphere of 5% CO2 in air in RPM11640 (BioConcept Ltd. Amimed) supplemented with 10% FCS (BioConcept Ltd. Amimed, #2-01 F30-1), 2 mM L-glutamine (BioConcept Ltd. Amimed, #5-10K00-H) and 1 mM sodium pyruvate (BioConcept Ltd. Amimed, #5-60F00-H), 10 mM HEPES (Gibco #11560496). To establish EOL1 xenografts cells were harvested and re-suspended in HBSS (Gibco, #14175) before injecting 100 μL containing 5×10^6 cells subcutaneously in the flanks of female SCID beige mice (Charles River, Germany). Tumor growth was monitored regularly post cell inoculation and animals were randomized into treatment groups (n=6) with a mean tumor volume of about 130 mm^3. The ADCs were administered intravenously (iv) once at the start of treatment at 2.5 mg/kg or at 3.3 mg/kg in combination with venetoclax which was administered orally (po) daily (qd) at 50 mg/kg. Doses were adjusted to individual mouse body weights. The iv dose volume was 10 ml/kg and each ADC was dissolved in 0.9% (w/v) NaCl in water. Tumor volume data on day 10 post treatment were analyzed statistically using one way ANOVA post hoc Tukey's multiple comparisons test (Indigo Software). Results are presented as mean±SEM. As a measure of efficacy the % T/C value is calculated on day 10 according to:
(Δtumor volume^treated/Δtumor volume^control)*100
Tumor regression was calculated according to:
−(Δtumor volume^treated/tumor volume^treated at start)*100
Where Δtumor volumes represent the mean tumor volume on the evaluation day minus the mean tumor volume at the start of the experiment.

The test system of the next test is EOL-1. Type of test: cell-based. Here is the method:
(§1) The CD74 MCL-1 antibody drug conjugates were tested against three endogenous cancer cell lines. MONO-MAC-1 (DSMZ No. ACC-252 cultured in RPMI-1640+10% FBS+1× non-essential amino acids+1 mM sodium pyruvate), NOMO-1 (DSMZ No. ACC-542 cultured in RPMI-1640+10% FBS) and EOL-1 (DSMZ No. ACC-386 cultured in RPMI-1640+10% FBS)
(§2) The ability of the CD74 MCL-1 antibody drug conjugates to inhibit cell proliferation in combination with BCL-2 inhibitor and survival was assessed using the Promega CellTiter-Glo® proliferation assay. Cell lines were cultured in media that is optimal for their growth at 5% CO2, 37° C. in a tissue culture incubator. Prior to seeding for the proliferation assay, the cells were split at least 2 days before the assay to ensure optimal growth density. On the day of seeding, suspension cells were harvested. Cell viability and cell density were determined using a cell counter (Vi-Cell XR Cell Viability Analyzer, Beckman Coulter). […] Cells were seeded at a density of 1,000 cells per well in 45 μL of standard growth media. Plates were incubated at 5% CO2, 37° C. overnight in a tissue culture incubator. The next day, free MCL-1 payload (P1), targeting MCL-1 ADCs and non-targeting isotype ADCs were prepared at 10× in standard growth media. The prepared drug treatments were then added to the cells resulting in final concentrations of 0.0005-300 nM and a final volume of 50 μL per well. Each drug concentration was tested in quadruplets. Three conditions were evaluated for each compound. The compounds were evaluated as single agents and in combination with Venetoclax and in combination with Compound A1. The Venetoclax and Compound A1 were dosed at either 5 nM or 50 nM final concentration. Plates were incubated at 5% CO2, 37° C. for 5 days in a tissue culture incubator, after which cell viability was assessed through the addition of 25 μL of CellTiter Glo® (Promega, cat#G7573), a reagent which lyses cells and measures total adenosine triphosphate (ATP) content. Plates were incubated at room temperature for 10 minutes to stabilize luminescent signals prior to reading using a luminescence reader (EnVision Multilabel Plate Reader, PerkinElmer). To evaluate the effect of the drug treatments, luminescent counts from wells containing untreated cells (100% viability) were used to normalize treated samples. A variable slope model was applied to fit a nonlinear regression curve to the data in GraphPad PRISM version 7.02 software. IC50 and Amax values were extrapolated from the resultant curves.

The subject of the next test is NOMO-1. Format: cell-based. Here is the method: as §1, §2
A further test deals with MONO-MAC-1. Type of test: cell-based. Here is the method: as §1, §2
The next test has as its system Monomac1 cells. The experiment in a line: Viability of Monomac1 AML cell line, CellTiterGlo 72 h. Format: cell-based. Conditions: read-out: IC50 M (CTG 72 h) Monomac1. The protocol:
Monomac1 cells were cultivated in RPMI supplemented with 10% heat inactivated fetal bovine serum, penicillin (100 IU/ml), streptomycin ([…]) and L-glutamine (2 mM). Cell lines were cultured at 37° C. in a humidified atmosphere containing 5% CO2. Cells were seeded in 96 microwell plates and exposed to the payloads or ADCs for 72 h (serially diluted; 9 concentrations each, triplicates). Effects of payloads or ADCs on cell viability were assessed after 3 days of incubation at 37° C./5% CO2 by quantification of cellular ATP levels using CellTiterGlo at 75 μL reagent/well. All the conditions were tested in triplicates. Luminescence was quantified on a multipurpose plate reader. IC50s were calculated using standard four-parametric curve fitting. […] Each experiment was performed at least twice, with results being reproducible.

The record followed here is patent publication US20230081720A1, “MCL-1 INHIBITOR ANTIBODY-DRUG CONJUGATES AND METHODS OF USE” (NOVARTIS AG, priority 2019, published 2023).

Read-outs that look alike come from different tables or passages of the source.

As to `COCCOCCOCCOCCOCCOCCOCCOCCOCCOCCOCCOCCOCCOCCOCCOCCOCCOCCOCCOCCOCCOCCOCCOCCn1cc(COCc2cc(NC(=O)[C@H](CCCNC(N)=O)NC(=O)[C@@H](NC(=O)CCOCCN3C(=O)CC(C)C3=O)C(C)C)ccc2C[N+]2(C)CCN(CCOc3ccc(-c4c(-c5ccc(F)cc5)sc5ncnc(O[C@H](Cc6ccccc6OCc6ccnc(-c7ccccc7OC)n6)C(=O)O)c45)c(C)c3Cl)CC2)nn1` (stereo partly shown) [CD74-L5-P1], the “T/C (%)” value in test [1] (day 10) is reported as 70%. For the same compound, the “ΔTumor volume (mm^3)” value in test [1] (female SCID beige mice, day 10, mean) amounted to 702 mm^3. The IC50 with EOL-1 (+ 5 nM Compound A1, 5 days) turned out to be 0.136 nM; in the test with EOL-1 (+ 5 nM Venetoclax, 5 days), 0.164 nM; with EOL-1 (single agent, 5 days) it was 1.42 nM; with NOMO-1 (+ 5 nM Compound A1, 5 days), 0.457 nM; in the test with NOMO-1 (+ 5 nM Venetoclax, 5 days), 1.03 nM; in the test with NOMO-1 (+ 50 nM Compound A1, 5 days), 0.138 nM. Besides, the concentration for half-maximal inhibition (IC50) in the test with NOMO-1 (+ 50 nM Venetoclax, 5 days) turned out to be 0.278 nM; in the test on NOMO-1 (single agent, 5 days) it was 3.7 nM; in the test on MONO-MAC-1 (+ 5 nM Compound A1, 5 days), 0.636 nM; with MONO-MAC-1 (+ 5 nM Venetoclax, 5 days), 1.31 nM; in the test with MONO-MAC-1 (+ 50 nM Compound A1, 5 days), 0.156 nM; in the test with MONO-MAC-1 (+ 50 nM Venetoclax, 5 days) it was 0.409 nM. For the same compound, the half-maximal inhibitory concentration (IC50) in the test with MONO-MAC-1 (single agent, 5 days) worked out at 7.95 nM. In the test with EOL-1 (single agent, 5 days), the “Amax (Span) EOL-1” value is listed as 91.25. Further, the “Amax (Span) NOMO-1” value in the test on NOMO-1 (single agent, 5 days) amounted to 74.45. For the same compound, in the test with MONO-MAC-1 (single agent, 5 days), the “Amax (Span) MONO-MAC-1” value came out at 84.9.

`COc1ccccc1-c1nccc(COc2ccccc2C[C@@H](Oc2ncnc3sc(-c4ccc(F)cc4)c(-c4ccc(OCCN5CC[N+](C)(Cc6ccc(NC(=O)[C@H](CCCNC(N)=O)NC(=O)[C@@H](NC(=O)CCOCCN7C(=O)CC(C)C7=O)C(C)C)cc6)CC5)c(Cl)c4C)c23)C(=O)O)n1` (stereo partly shown) [CD74-L9-P1]: the IC50 in the test on Monomac1 cells (72 h) came out at 0.482 nM.

For `COc1ccccc1-c1nccc(COc2ccc3cc2C[C@H](C(=O)O)Oc2ncnc4sc(-c5ccc(F)cc5)c(c24)-c2c(C)c(Cl)c(c(Cl)c2C)O[C@H](CN2CCN(C)CC2)CO3)n1` [P15, (11R,20R)-23,26-dichloro-3-(4-fluorophenyl)-14-[[2-(2-methoxyphenyl)pyrimidin-4-yl]methoxy]-24,25-dimethyl-20-[(4-methylpiperazin-1-yl)methyl]-10,18,21-trioxa-4-thia-6,8-diazapentacyclo[20.2.2.12,5.113,17.09,28]octacosa-1(25),2,5(28),6,8,13,15,17(27),22(26),23-decaene-11-carboxylic acid], the IC50 in the test with Monomac1 cells (Mono-Mac-1, 72 h) came out at 0.386 nM.

With `Cc1c(Cl)c2c(Cl)c(C)c1-c1c(-c3ccc(F)cc3)sc3ncnc(c13)O[C@@H](C(=O)O)Cc1cc(ccc1OCc1ccnc([C@H]3CC[C@](F)(COC[C@@H]4COCCO4)CC3)n1)OC[C@@H](CN1CCN(C)CC1)O2` [P16, (11R,20R)-23,26-dichloro-14-[[2-[4-[[(2S)-1,4-dioxan-2-yl]methoxymethyl]-4-fluoro-cyclohexyl]pyrimidin-4-yl]methoxy]-3-(4-fluorophenyl)-24,25-dimethyl-20-[(4-methylpiperazin-1-yl)methyl]-10,18,21-trioxa-4-thia-6,8-diazapentacyclo[20.2.2.12,5.113,17.09,28]octacosa-1(24),2,5(28),6,8,13,15,17(27),22,25-decaene-11-carboxylic Acid], in the test on Monomac1 cells (Mono-Mac-1, 72 h), the half-maximal inhibitory concentration (IC50) stood at 0.281 nM.

`Cc1c(Cl)c2c(Cl)c(C)c1-c1c(-c3ccc(F)cc3)sc3ncnc(c13)O[C@@H](C(=O)O)Cc1cc(ccc1OCc1ccnc([C@H]3CC[C@H](OC[C@@H]4COCCO4)CC3)n1)OC[C@@H](CN1CCN(C)CC1)O2` [P17, (11R,20R)-23,26-dichloro-14-[[2-[4-[[(2S)-1,4-dioxan-2-yl]methoxy]cyclohexyl]pyrimidin-4-yl]methoxy]-3-(4-fluorophenyl)-24,25-dimethyl-20-[(4-methylpiperazin-1-yl)methyl]-10,18,21-trioxa-4-thia-6,8-diazapentacyclo[20.2.2.12,5.113,17.09,28]octacosa-1(24),2,5(28),6,8,13,15,17(27),22,25-decaene-11-carboxylic Acid]: the IC50 in the test with Monomac1 cells (Mono-Mac-1, 72 h) was found to be 0.62 nM.
